Results: patent US7763615B2, “Ecteinascidin analogs for use as antitumour agents” (priority 2001, dated 2010)
Converted amounts (≈) assume the structure as drawn.

Key:
SW-620 = assay: cells; type: cell-based; conditions: Homo sapiens
Summary of the method: (§1)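 Seeding density 5×10^3 cells/well; attachment 18 h in drug-free medium; exposure 48 h, 10 to 10^−8 μg/ml. Fixation cold TCA 60 min at 4° C, SRB 10 min, absorbance 490 nm.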

DU145 = assay: cells; type: cell-based; conditions: Homo sapiens, DU-145, 48 h
Summary of the method: as §1

A549 = assay: cells; type: cell-based; conditions: Homo sapiens, A549, 48 h
Summary of the method: as §1

MCF = assay: cells; type: cell-based; conditions: Homo sapiens
Summary of the method: as §1

HT29 = assay: cells; type: cell-based; conditions: Homo sapiens, HT-29, 48 h
Summary of the method: as §1

MEL-28 = assay: cells; type: cell-based; conditions: Homo sapiens, SK-MEL-28, 48 h
Summary of the method: as §1

A498 = assay: cells; type: cell-based; conditions: Homo sapiens
Summary of the method: as §1

MB231 = assay: cells; type: cell-based; conditions: Homo sapiens
Summary of the method: as §1

physchem [1] = conditions: pH 7.4, aqueous buffer, Solubility Dulbecco's PBS pH 7.4
(HEPG2) = conditions: human, 24 h, 30 μM
Method: The toxic potential of compounds was investigated in vitro using primary human hepatocytes (HEPG2). The compounds were tested at 30 μM in duplicate with a final DMSO concentration of 1%. After incubation during 24 h at 37° C. the cell viability was determined by the conversion of oxided alarmarBlue (resazurin) to reduced alarmarBlue (resorufin). Chlorpromazine was used as reference compound. Results are expressed as a percent of inhibition of control values.

CYP2D6 = CYP2D6 (Homo sapiens, UniProt P10635); assay: in vitro; conditions: CYP2D6 (% inhibition)
CYP2D6, sequence (P10635 whole entry): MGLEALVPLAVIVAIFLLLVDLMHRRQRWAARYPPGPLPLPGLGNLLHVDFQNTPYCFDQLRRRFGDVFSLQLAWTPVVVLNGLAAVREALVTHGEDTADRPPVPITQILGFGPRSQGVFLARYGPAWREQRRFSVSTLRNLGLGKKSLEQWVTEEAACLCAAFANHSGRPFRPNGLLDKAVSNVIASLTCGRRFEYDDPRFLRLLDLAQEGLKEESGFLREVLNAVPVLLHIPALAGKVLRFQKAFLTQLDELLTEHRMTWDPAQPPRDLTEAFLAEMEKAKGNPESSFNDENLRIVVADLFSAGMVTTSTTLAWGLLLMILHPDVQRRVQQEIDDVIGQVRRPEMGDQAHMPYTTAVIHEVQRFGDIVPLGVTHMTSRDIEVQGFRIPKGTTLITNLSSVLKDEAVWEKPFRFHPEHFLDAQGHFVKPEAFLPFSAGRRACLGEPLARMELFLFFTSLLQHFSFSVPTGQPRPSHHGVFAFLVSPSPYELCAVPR
Method: For CYP2D6 inhibition assay, the compound are tested at 10 μM in duplicate with a 0.25% final concentration of both methanol and acetonitrile in presence of the fluorescent substrate AMMC (3-[2-N,N-diethyl-N-methylammonium)ethyl]-7-methoxy-4-methylcoumarin) at the concentration of 1.5 μM). The conversion of the AMMC in AHMC (3-[2-N,N-diethyl-N-methylammonium)ethyl]-7-hydroxy-4-methylcoumarin) is determined spectrofluorimetry after incubation with the enzyme during 450 min at 37° C.
(§2) For both assays, the fluorescent intensity measured at t=0 is subtracted from that measured after the appropriate incubation time. The ratio of signal-to-noise is calculated by comparing the fluorescence in incubations containing the test compound to the control samples containing the same solvent vehicle. The percent of control activity is calculated and reported as percent inhibition.

[2] = system: NRK-52E, normal rat kidney cells; conditions: 24 h
[3] = system: AML-12, normal mouse liver cells; conditions: 24 h
[4] = system: L8, normal rat skeletal muscle cells; conditions: 24 h
[5] = system: FDC-P1, normal mouse myelogeous stem cells; conditions: 24 h
physchem [6] = conditions: pH 7.4, log D n-Octanol-Dulbecco's PBS pH 7.4
Method: The measurement of partition coefficient was evaluated based on a miniaturized shake-flask procedure. Buffer (Dulbecco's PBS, pH 7.40) was used as the aqueous phase. The tested compound was dissolved in DMSO, at the concentration of 100 μM. The final DMSO concentration (1%.) during the octanol-buffer partitioning are very low to avoid bias on the partitioning. The amount of compound in the buffer phase was determined by HPLC with photodiode array detection after an equilibration phase of 60 min. The amount of compound in the octanol phase is calculated by subtraction of the amount of compound in buffer from the total amount of compound, which is determined from a calibration sample.
Log D is calculated as the Log10 of the amount of compound in the octanol phase divided by the amount of compound in the buffer phase. The effective range of the log D microassay is approximately −0.5 to +4.5.

in vitro = conditions: human, Caco-2
From the text: The intestinal epithelium permeability is a critical characteristic that determines the rate and extent of human absorption and ultimately the bioavailability of a drug candidate. Caco-2 permeability assay allows a rapid assessment of membrane permeability and thus helps to rank-order compounds in terms of their absorption potential.
The Caco-2 cell line is a human colon adenocarcinoma cell line that differentiates in culture and resembles the epithelial lining of the human small intestine.
The apparent permeability coefficients (Papp) was determined in the apical-to-basolateral (A-to-B) direction across the cell monolayers (TC-7 sub-clone of the Caco-2) cultured on polycarbonate membrane filters. Compounds were tested at 50 μM with at a final DMSO concentration of 1%. Samples were analyzed by HPLC-MS or HPLC-MS/MS.
The test compound was added to the apical side and the Papp was determined based on the rate of appearance of the test compound in the basolateral side after 2 h-incubation. Two reference compounds, propranolol (highly permeable) and ranitidine (poorly permeable), are tested in each assay as controls.

CYP3A4 = CYP3A4 (Homo sapiens, UniProt P08684); assay: in vitro; conditions: CYP3A4 (% inhibition)
CYP3A4, sequence (P08684 whole entry): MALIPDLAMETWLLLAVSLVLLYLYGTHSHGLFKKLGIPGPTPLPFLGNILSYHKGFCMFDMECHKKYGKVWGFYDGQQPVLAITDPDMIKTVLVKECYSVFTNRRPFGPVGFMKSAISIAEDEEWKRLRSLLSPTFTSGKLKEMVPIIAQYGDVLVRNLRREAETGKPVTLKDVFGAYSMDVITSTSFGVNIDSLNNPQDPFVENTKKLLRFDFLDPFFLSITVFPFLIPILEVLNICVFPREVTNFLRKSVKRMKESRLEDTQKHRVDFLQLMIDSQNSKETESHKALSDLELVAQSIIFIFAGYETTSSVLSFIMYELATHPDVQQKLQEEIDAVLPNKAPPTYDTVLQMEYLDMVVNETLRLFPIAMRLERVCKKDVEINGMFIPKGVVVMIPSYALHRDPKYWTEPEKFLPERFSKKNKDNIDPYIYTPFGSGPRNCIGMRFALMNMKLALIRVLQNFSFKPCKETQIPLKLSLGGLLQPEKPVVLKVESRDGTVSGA
Method: For CYP3A4 inhibition assay, the compound were tested at 10 μM in duplicate with a 0.25% final concentration of both methanol and acetonitrile in presence of the fluorescent substrate BFC (50 μM). The conversion of the BFC (7-benzyloxy-4-trifluoromethylcoumarin) in HFC (7-hydroxy-4-trifluoromethylcoumarin) was determined spectro-fluormetry after incubation with the enzyme during 30 min at 37° C.
as §2

[7] = system: H9c2 (2-1), normal rat cardiac muscle cells; conditions: 24 h
Method: In order to assess the cytotoxicity of the drugs to normal cells, we used 96 well plates plated at a density of 5000 cells per well (except for the FDC-P1 which were plated at 12,000 cells per well) with normal cell lines (ATCC, Table 1) maintained as per the directions of the ATCC: AML-12, normal mouse liver cells; NRK-52E, normal rat kidney cells; L8, normal rat skeletal muscle cells; FDC-P1, normal mouse myelogeous stem cells; and H9c2 (2-1), normal rat cardiac muscle cells. The cells in each plate were permitted to settle overnight before adding the test drug.
To each well (100 μl medium) 10 μl of drug in media was added at varying concentrations (1×10-10-0.01 mg/ml final concentration) and further incubated overnight at 37° C. with 5% CO2. After 24 h the following assays were performed. All experiments were repeated at least 3 times and were assayed in duplicate.
MTS assay (CellTiter 96 aqueous) was performed according to the manufacturer's (Promega) directions (for all cell types). Cell viability (mitochondrial activity) is determined via enzymatic conversion of the formazan substrate.

[8] = s9, 60 min, 1 μM
Method: The metabolic stability was determined used human liver S9 homogenate that including both microsomal and cytosolic enzyme activities. The test compound was diluted in methanol (0.625%) and acetonitrile (0.625%) at the concentration 1 μM and incubated in the human liver pool (protein=1 mg/mL) during 60 min at 37° C. Peak areas corresponding to all analytes (metabolic products) were determined by HPLC-MS/MS. Areas were recorded and ratios of peak areas of analytes to that of internal standard for each analyte were determined. The ratio of precursor compound remaining after 60 minutes and the amount remaining at time zero, expressed as percent, are reported as metabolic stability. Higher values mean higher metabolic stability.

**Q.** Which GI50 (SW-620; SW-620, 48 h) does the source give for `COc1ccc2c3c([nH]c2c1)[C@@]1(CS[C@@H]2c4c(OC(C)=O)c(C)c5c(c4[C@H](COCC1=O)N1C2[C@H]2c4c(cc(C)c(OC)c4O)C[C@@H]([C@@H]1O)N2C)OCO5)NCC3` (stereo partly drawn) [Compound 34] here?
**A.** 10.2 nM

**Q.** And the CC50 (SW-620; SW-620, 48 h, read-out: LC50)?
**A.** 102 nM

**Q.** What about the IC (TGI) (SW-620; SW-620, 48 hours exposure, SRB) of the same compound?
**A.** 38.2 nM

**Q.** And the GI50 (DU145; DU145, 48 hours exposure, SRB)?
**A.** 2.55 nM

**Q.** What about the IC (TGI) (DU145; DU145, 48 hours exposure, SRB) of the same compound?
**A.** 3.82 nM

**Q.** And the CC50 (DU145; read-out: LC50, DU145, 48 hours exposure, SRB)?
**A.** 10.2 nM

**Q.** What about the GI50 (A549; A549, 48 hours exposure, SRB, read-out: GI50) of the same compound?
**A.** 5.1 nM

**Q.** What about the IC (TGI) (A549; A549, 48 hours exposure, SRB, read-out: TGI) of the same compound?
**A.** 25.5 nM

**Q.** And the CC50 (A549; read-out: LC50, A549, 48 hours exposure, SRB)?
**A.** 89.2 nM

**Q.** And the CC50 (MCF; 48 h, read-out: LC50)?
**A.** 127 nM

**Q.** What about the GI50 (MCF; MCF, 48 hours exposure, SRB) of the same compound?
**A.** 5.1 nM

**Q.** What about the IC (TGI) (MCF; MCF, 48 hours exposure, SRB, read-out: TGI) of the same compound?
**A.** 25.5 nM

**Q.** What about the GI50 (HT29; HT29, 48 hours exposure, SRB) of the same compound?
**A.** 7.64 nM

**Q.** What about the IC (TGI) (HT29; HT29, 48 hours exposure, SRB) of the same compound?
**A.** 2.54 nM

**Q.** And the CC50 (HT29; read-out: LC50, HT29, 48 hours exposure, SRB)?
**A.** 11.5 nM

**Q.** And the GI50 (MEL-28; MEL-28, 48 hours exposure, SRB)?
**A.** 3.82 nM

**Q.** What about the IC (TGI) (MEL-28; MEL-28, 48 hours exposure, SRB) of the same compound?
**A.** 12.7 nM

**Q.** And the CC50 (MEL-28; read-out: LC50, MEL-28, 48 hours exposure, SRB)?
**A.** 63.7 nM

**Q.** What about the CC50 (A498; A498, 48 h, read-out: LC50) of the same compound?
**A.** 63.7 nM

**Q.** And the GI50 (A498; A498, 48 hours exposure, SRB)?
**A.** 3.82 nM

**Q.** What about the IC (TGI) (A498; A498, 48 hours exposure, SRB) of the same compound?
**A.** 12.7 nM

**Q.** What about the CC50 (MB231; 48 h, read-out: LC50) of the same compound?
**A.** 127 nM

**Q.** And the IC (TGI) (MB231; 48 h, read-out: TGI)?
**A.** 10.2 nM

**Q.** And the GI50 (MB231; MB231, 48 hours exposure, SRB)?
**A.** 3.82 nM

**Q.** What about the solubility (physchem [1]) of the same compound?
**A.** 17.6 µM (≈ 14.1 µg/mL)

**Q.** And the “Cell Viability (% inhibition)” value ((HEPG2))?
**A.** 45 % inhibition

**Q.** What about the inhibition at 450 min, 10 µM (CYP2D6) of the same compound?
**A.** 28%

**Q.** What about the Kidney [2] of the same compound?
**A.** 2.74E−07

**Q.** What about the Liver [3] of the same compound?
**A.** 2.55E−06

**Q.** And the Skeletal [4]?
**A.** 1.48E−08

**Q.** And the Myelo [5]?
**A.** 1.15E−05

**Q.** And the logD at 60 min (physchem [6])?
**A.** > 5

**Q.** What about the Papp A→B at 2 h, 50 μM (in vitro) of the same compound?
**A.** 5 ×10⁻⁶ cm/s

**Q.** And the inhibition at 30 min, 10 µM (CYP3A4)?
**A.** 80%

**Q.** And the Heart [7]?
**A.** 4.96E−07

**Q.** And the “Human Liver S9 Metabolic Stability (% remaining)” value [8]?
**A.** 24 % remaining
